Test results reported in the NIST ThermoML archive (doi:10.1021/je300240k).
Values joined by “and” are separate entries in the source; they are usually repeats but may differ in a detail not shown here. Equal entries are not always repeated.

Conditions: Liquid, Ebulliometric method (Recirculating still)

F/C=C/C(F)(F)F [trans-1,3,3,3-tetrafluoropropene]
Conditions | vapor or sublimation pressure
223.1 K | 21 kPa
228.08 K | 28 kPa
232.99 K | 36 kPa
238.04 K | 47 kPa
243.02 K | 61 kPa
248.04 K | 77 kPa
253.02 K | 96 kPa
257.14 K | 115 kPa
258.04 K | 119 kPa
259.15 K | 125 kPa
261.15 K | 136 kPa
263.1 K | 147 kPa
263.15 K | 147 kPa
265.15 K | 160 kPa
267.15 K | 173 kPa
268.01 K | 178 kPa
269.15 K | 186 kPa
271.15 K | 201 kPa
273.06 K | 216 kPa
273.15 K | 216 kPa
275.15 K | 233 kPa
277.15 K | 250 kPa
278.01 K | 258 kPa
279.15 K | 269 kPa
281.15 K | 288 kPa
282.93 K | 306 kPa
283.15 K | 308 kPa
285.15 K | 330 kPa
287.15 K | 352 kPa
287.89 K | 361 kPa
289.15 K | 376 kPa
291.15 K | 401 kPa
292.85 K | 423 kPa
293.15 K | 427 kPa
295.15 K | 455 kPa
297.15 K | 484 kPa
297.69 K | 492 kPa
297.87 K | 495 kPa
298.77 K | 508 kPa
299.15 K | 514 kPa
301.15 K | 546 kPa
303.15 K | 579 kPa
303.68 K | 588 kPa
305.15 K | 614 kPa and 613 kPa
307.15 K | 649 kPa
308.82 K | 681 kPa
309.15 K | 687 kPa
311.15 K | 726 kPa
312.85 K | 761 kPa
313.15 K | 767 kPa
315.15 K | 810 kPa
317.15 K | 854 kPa
317.75 K | 868 kPa
319.15 K | 900 kPa
321.15 K | 948 kPa
323.1 K | 997 kPa
323.15 K | 998 kPa
325.15 K | 1050 kPa
327.15 K | 1104 kPa
328.12 K | 1130 kPa
329.15 K | 1160 kPa
331.15 K | 1218 kPa
333.11 K | 1276 kPa
333.15 K | 1278 kPa
335.15 K | 1340 kPa
337.15 K | 1405 kPa
338.11 K | 1436 kPa
339.15 K | 1472 kPa
341.15 K | 1541 kPa
343.1 K | 1610 kPa
343.15 K | 1613 kPa
348.09 K | 1799 kPa
353.08 K | 2005 kPa
